Reference: patent publication US9637490B2, “Antifungal 5,6-dihydro-4-[(difluoroethyl)phenyl]-4H-pyrrolo[1,2-α][1,4]benzodiazepine and 4-(difluoroethyl)phenyl-6H-pyrrolo[1,2-α][1,4]benzodiazepine derivatives” (Janssen Pharmaceutica NV, priority 2010, dated 2017)

Key:
[1] = tested on: Sporothrix schenkii B62482; experiment: Antifungal activity in vitro (resazurin susceptibility screen), Inf. A; format: cell-based; conditions: 27 °C, 4 days, resa time 24 hours; for IC50: Sporothrix, B62482, Sporothrix schenkii B62482; for pIC50 Inf. A: Sporothrix schenkii B62482
Protocol: (§1) The standard susceptibility screen was performed in 96-well plates (U-bottom, Greiner Bio-One). Serial dilutions (2-fold or 4-fold) of 20 mM compound stock solutions were made in 100% DMSO, followed by an intermediate dilution step in water. These serial dilutions (10 μl) were then spotted onto test-plates that could be stored in the dark at 4° C. for a maximum period of 2 weeks. An adequate broad dose-range was included with 64 μM as the highest in-test concentration. The culture medium RPMI-1640 was supplemented with L-glutamine, 2% glucose and buffered with 3-(N-morpholino)-propanesulfonic acid (MOPS) at pH 7.0±0.1. The different fungal species/isolates (Table 3a) were cryopreserved and 1/1000 diluted in medium just prior to use. A standard inoculum of 200 μl containing 10^3 colony-forming unit (cfu) was then added to each well. A positive control (100% growth=fungal culture without antifungal) and a negative control (0% growth=RPMI-MOPS medium) were included on each plate. Optimal incubation time and temperature were dependent on the fungal species and vary from 24 h for yeasts (37° C.) to one week or more for dermatophytes (27° C.). Inhibition of fungal growth was measured after adding 10 μl of 0.005% (w/v) resazurin (Sigma Aldrich) to each well, based on the principle that living cells convert the non-fluorescent blue resazurin into the pink and fluorescent resorufin, allowing fluorimetric reading (λhd ex 550 nm and μem 590 nm) after an additional incubation period (‘resa’ time mentioned in Table 3a). [table]

[2] = tested on: Microsporum canis B68128; experiment: Antifungal activity in vitro (resazurin susceptibility screen), Inf. B; format: cell-based; conditions: 27 °C, 9 days, resa time 24 hours; for IC50: Microsporum canis, B68128, Microsporum canis B68128; for pIC50 Inf. B: Microsporum canis B68128
Protocol: as §1

[3] = tested on: Trichophyton rubrum B68183; experiment: Antifungal activity in vitro (resazurin susceptibility screen), Inf. C; format: cell-based; conditions: 27 °C, 7 days, resa time 24 hours; for IC50: Trichophyton rubrum, B68183, Trichophyton rubrum B68183; for pIC50 Inf. C: Trichophyton rubrum B68183
Protocol: as §1

[4] = tested on: Candida parapsilosis B66126; experiment: Antifungal activity in vitro (resazurin susceptibility screen), Inf. D; format: cell-based; conditions: 37 °C, 24 hours, resa time 4 hours; for IC50: Lodderomyces parapsilosis, B66126, Candida parapsilosis B66126; for pIC50 Inf. D: Candida parapsilosis B66126
Protocol: as §1

[5] = tested on: Aspergillus fumigatus B42928; experiment: Antifungal activity in vitro (resazurin susceptibility screen), Inf. E; format: cell-based; conditions: 27 °C, 48 hours, resa time 17 hours; for IC50: Aspergillus fumigatus, B42928, Aspergillus fumigatus B42928; for pIC50 Inf. E: Aspergillus fumigatus B42928
Protocol: as §1

[6] = tested on: Cryptococcus neoformans B66663; experiment: Antifungal activity in vitro (resazurin susceptibility screen), Inf. F; format: cell-based; conditions: 37 °C, 24 hours, resa time 4 hours; for IC50: Cryptococcus neoformans, B66663, Cryptococcus neoformans B66663; for pIC50 Inf. F: Cryptococcus neoformans B66663
Protocol: as §1

[7] = tested on: Trichophyton mentagrophytes B70554; experiment: Antifungal activity in vitro (resazurin susceptibility screen), Inf. G; format: cell-based; conditions: 27 °C, 7 days, resa time 24 hours; for IC50: Trichophyton mentagrophytes, B70554, Trichophyton mentagrophytes B70554; for pIC50 Inf. G: Trichophyton mentagrophytes B70554
Protocol: as §1

[8] = tested on: Scedosporium apiospermum IHEM3817; experiment: Antifungal activity in vitro (resazurin susceptibility screen), Inf. H; format: cell-based; conditions: 37 °C, 48 hours, resa time 17 hours; for IC50: Scedosporium apiospermum, IHEM3817, Scedosporium apiospermum IHEM3817
Protocol: as §1

[9] = tested on: Rhizopus oryzae IHEM5223; experiment: Antifungal activity in vitro (resazurin susceptibility screen), Inf. J; format: cell-based; conditions: Rhizopus arrhizus, 37 °C, 24 hours, resa time 6 hours
Protocol: as §1

[10] = tested on: Rhizomucor miehei IHEM13391; experiment: Antifungal activity in vitro (resazurin susceptibility screen), Inf. K; format: cell-based; conditions: 37 °C, 48 hours, resa time 17 hours; for IC50: Rhizomucor miehei, IHEM13391, Rhizomucor miehei IHEM13391
Protocol: as §1

[11] = tested on: Mucor circinelloides IHEM21105; experiment: Antifungal activity in vitro (resazurin susceptibility screen), Inf. L; format: cell-based; conditions: 27 °C, 48 hours, resa time 17 hours
Protocol: as §1

[12] = tested on: Scedosporium prolificans IHEM21157; experiment: Antifungal activity in vitro (resazurin susceptibility screen), Inf. I; format: cell-based; conditions: Lomentospora prolificans, 37 °C, 48 hours, resa time 17 hours
Protocol: as §1

| Structure (SMILES) | IC50 [1] [nM] | IC50 [2] [nM] | IC50 [3] [nM] | IC50 [4] [nM] | IC50 [5] [nM] | IC50 [6] [nM] | IC50 [7] [nM] | IC50 [8] [nM] | IC50 [9] [nM] | IC50 [10] [nM] | IC50 [11] [nM] | melting point [°C] | IC50 [12] [nM] | also measured |
| --- | --- | --- | --- | --- | --- | --- | --- | --- | --- | --- | --- | --- | --- | --- |
| CC(F)(F)c1ccc(C2=NCc3cc(Cl)cc(Cl)c3-n3cccc32)cc1 [Compound 6, 8,10-dichloro-4-[4-(1,1-difluoroethyl)phenyl]-6H-pyrrolo[1,2-a][1,4]benzodiazepine] | 2630 | 17400 | 5890 | > 64600 | 933 | 1410 | 2450 | > 64600 | > 64600 | > 64600 | > 64600 | 132.1 to 134.2 | – | – |
| Cc1ccc(Cl)c2c1CN=C(c1ccc(C(C)(F)F)cc1)c1cccn1-2 [Compound 28, 10-chloro-4-[4-(1,1-difluoroethyl)phenyl]-7-methyl-6H-pyrrolo[1,2-a][1,4]-benzodiazepine] | 28200 | 14100 | 7410 | 45700 | ≥ 64600 | 16600 | 26900 | 708 | > 64600 | 41700 | > 64600 | 139.3 to 141.2 | 2290 | – |
| CC(F)(F)c1ccc(C2=NCc3ccc(Cl)c(Cl)c3-n3cccc32)cc1 [Compound 22, 9,10-dichloro-4-[4-(1,1-difluoroethyl)phenyl]-6H-pyrrolo[1,2-a][1,4]benzodiazepine] | > 64600 | 7760 | 7760 | > 64600 | > 64600 | > 64600 | > 64600 | – | – | – | – | 140.9 to 142.1 | – | – |
| CC(F)(F)c1ccc(C2NCc3c(Cl)cccc3-n3cccc32)cc1.Cl [Compound 3, (4R)-7-chloro-4-[4-(1,1-difluoroethyl)phenyl]-5,6-dihydro-4H-pyrrolo[1,2-a][1,4]-benzodiazepine.HCl] | – | – | – | – | – | – | – | – | – | – | – | 206.3 to 206.8 | – | pIC50 Inf. A [1]: <4.19; pIC50 Inf. B [2]: 6.30; pIC50 Inf. C [3]: 6.96; pIC50 Inf. D [4]: 5.58; pIC50 Inf. E [5]: 5.70; pIC50 Inf. F [6]: 5.26; pIC50 Inf. G [7]: 6.36; pIC50 Inf. H ([8]; Scedosporium apiospermum IHEM3817): 5.13; pIC50 Inf. K ([10]; Rhizomucor miehei IHEM13391): 4.59 |
| CC(F)(F)c1ccc(C2NCc3c(Cl)cc(F)cc3-n3cccc32)cc1.Cl (stereo not shown) [Compound 24, 7-chloro-4-[4-(1,1-difluoroethyl)phenyl]-9-fluoro-5,6-dihydro-4H-pyrrolo[1,2-a][1,4]-benzodiazepine.HCl] | > 64600 | 7760 | 617 | 2630 | 11500 | > 64600 | 1700 | – | – | – | – | 240 to 240.7 | – | – |
| CC(F)(F)c1ccc(C2NCc3c(Cl)cccc3-n3cccc32)cc1.Cl [Compound 2, (4S)-7-chloro-4-[4-(1,1-difluoroethyl)phenyl]-5,6-dihydro-4H-pyrrolo[1,2-a][1,4]-benzodiazepine.HCl] | – | – | – | – | – | – | – | – | – | – | – | 206.7 to 207.6 | – | pIC50 Inf. A [1]: <4.19; pIC50 Inf. B [2]: 5.09; pIC50 Inf. C [3]: 5.82; pIC50 Inf. D [4]: <4.19; pIC50 Inf. E [5]: <4.19; pIC50 Inf. F [6]: <4.19; pIC50 Inf. G [7]: 5.43 |

Second part, led by results:

| IC50 [1] [nM] | IC50 [2] [nM] | IC50 [3] [nM] | IC50 [4] [nM] | IC50 [5] [nM] | IC50 [6] [nM] | IC50 [7] [nM] | IC50 [8] [nM] | IC50 [9] [nM] | IC50 [10] [nM] | IC50 [11] [nM] | melting point [°C] | IC50 [12] [nM] | Structure (SMILES) | also measured |
| --- | --- | --- | --- | --- | --- | --- | --- | --- | --- | --- | --- | --- | --- | --- |
| > 64600 | 468 | 162 | 7760 | 501 | 1410 | 363 | 8910 | > 64600 | 12300 | > 64600 | 170.8 to 171.5 | 4570 | CC(F)(F)c1ccc(C2=NCc3c(F)cccc3-n3cccc32)cc1F [Compound 30, 4-[4-(1,1-difluoroethyl)-3-fluorophenyl]-7-fluoro-6H-pyrrolo[1,2-a][1,4]benzodiazepine] | – |
| 9550 | 417 | 129 | 3630 | 537 | > 64600 | 794 | 182 | > 64600 | > 64600 | > 64600 | 143.2 to 144.3 | 100 | CC(F)(F)c1cc(C2=NCc3c(F)cc(F)cc3-n3cccc32)ccc1F [Compound 23, 4-[3-(1,1-difluoroethyl)-4-fluorophenyl]-7,9-difluoro-6H-pyrrolo[1,2-a][1,4]-benzodiazepine] | – |
| 10200 | 468 | 468 | 3800 | 589 | > 64600 | 1200 | 158 | > 64600 | 13500 | > 64600 | 84.9 to 85.9 | 191 | CC(F)(F)c1cc(C2=NCc3c(Cl)cc(F)cc3-n3cccc32)ccc1F [Compound 26, 7-chloro-4-[3-(1,1-difluoroethyl)-4-fluorophenyl]-9-fluoro-6H-pyrrolo[1,2-a][1,4]-benzodiazepine] | – |
| > 64600 | 3980 | 3020 | > 64600 | > 64600 | > 64600 | 60300 | – | – | – | – | 162.3 to 163.5 | – | CC(F)(F)c1ccc(C2=NCc3c(Cl)ccc(Cl)c3-n3cccc32)cc1 [Compound 8, 7,10-dichloro-4-[4-(1,1-difluoroethyl)phenyl]-6H-pyrrolo[1,2-a][1,4]benzodiazepine] | – |
| > 64600 | 490 | 42.7 | 631 | 224 | > 64600 | 251 | > 64600 | 33900 | > 64600 | > 64600 | – | 2510 | CC(F)(F)c1ccc(C2=NCc3c(F)cccc3-n3cccc32)cc1 [Compound 15, 4-[4-(1,1-difluoroethyl)phenyl]-7-fluoro-6H-pyrrolo[1,2-a][1,4]benzodiazepine] | – |
| 3720 | 479 | 195 | 2450 | 126 | 1580 | 692 | 89.1 | > 64600 | 6610 | > 64600 | – | 50.1 | CC(F)(F)c1cc(C2=NCc3c(Cl)cccc3-n3cccc32)ccc1F [Compound 21, 7-chloro-4-[3-(1,1-difluoroethyl)-4-fluorophenyl]-6H-pyrrolo[1,2-a][1,4]benzodiazepine] | – |
| 2450 | 513 | 288 | 1820 | 501 | 1020 | 1510 | 437 | > 64600 | 8320 | > 64600 | – | 100 | CC(F)(F)c1ccc(C2=NCc3c(Cl)cc(F)cc3-n3cccc32)cc1 [Compound 27, 7-chloro-4-[4-(1,1-difluoroethyl)phenyl]-9-fluoro-6H-pyrrolo[1,2-a][1,4]benzodiazepine] | – |
